Measured values from patent publication US20240116985A1, “STAPLED PEPTIDES AND METHODS THEREOF” (priority 2020, published 2024).
≈ marks a conversion by molar mass, not a printed value. Read-outs that look alike come from different tables or passages of the source.

What was measured:
Solubility in PBS = type: physicochemical
Method in brief: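 PBS sample ultracentrifuged; supernatant run on HPLC vs. 50 μM peptide in DMSO standard. Solubility = (PBS peak area / DMSO peak area) × 50 uM.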

CHI Log D procedure = type: physicochemical; details: for chromatographic logD: pH 7.4, CHI Log D; for CHI Log D: pH 7.4
[1] = biological target: T1, full-length beta-Catenin (Uniprot ID P35222) (Homo sapiens, UniProt P35222); experiment: Fluorescence polarization IC50 (beta-catenin / 5FAM-TCF4 10-53 competition); type: binding
T1 construct: 10 nM full-length beta-Catenin (Uniprot ID P35222)
T1 sequence (P35222 1-781): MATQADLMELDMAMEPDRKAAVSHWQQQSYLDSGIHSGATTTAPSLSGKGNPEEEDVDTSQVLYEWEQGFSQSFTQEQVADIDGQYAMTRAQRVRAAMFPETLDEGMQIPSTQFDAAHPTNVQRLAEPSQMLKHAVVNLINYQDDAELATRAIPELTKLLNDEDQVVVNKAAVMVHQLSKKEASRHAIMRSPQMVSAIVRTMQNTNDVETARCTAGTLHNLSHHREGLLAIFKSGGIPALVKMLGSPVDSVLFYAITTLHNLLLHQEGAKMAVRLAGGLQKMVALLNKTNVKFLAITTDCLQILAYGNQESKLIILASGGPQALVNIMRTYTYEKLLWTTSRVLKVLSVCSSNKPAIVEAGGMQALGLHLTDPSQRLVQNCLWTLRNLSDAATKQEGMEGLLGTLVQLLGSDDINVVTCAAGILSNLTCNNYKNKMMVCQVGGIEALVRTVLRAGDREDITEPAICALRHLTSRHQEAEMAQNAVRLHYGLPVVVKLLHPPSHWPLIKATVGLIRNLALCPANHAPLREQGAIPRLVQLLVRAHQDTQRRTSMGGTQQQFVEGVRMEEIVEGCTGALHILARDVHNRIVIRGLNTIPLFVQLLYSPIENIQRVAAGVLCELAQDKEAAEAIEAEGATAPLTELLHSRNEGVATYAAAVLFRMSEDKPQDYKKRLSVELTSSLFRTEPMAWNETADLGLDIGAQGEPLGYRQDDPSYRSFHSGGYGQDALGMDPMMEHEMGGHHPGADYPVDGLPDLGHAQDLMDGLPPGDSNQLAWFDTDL

[2] = fluorescence polarization, read-out: beta-Catenin FP IC50
[3] = fluorescence polarization, beta-catenin, read-out: FP EC50

Solubility (Solubility in PBS) [µM] | chromatographic logD (CHI Log D procedure) | IC50 [1, 2] [nM] | Solubility (Solubility in PBS; Solubility (uM)) [µM] | CHI Log D (CHI Log D procedure) | IC50 ([1]; read-out: FP EC50) [nM] | IC50 ([1]; Table E2-1, read-out: beta-Catenin FP IC50) [nM] | IC50 [1, 3] [nM] | IC50 ([1]; read-out: beta-Catenin FP IC50) [nM] | Compound
50 (≈ 93.3 µg/mL) | 2.07 | 146 |  |  |  |  |  |  | CC(=O)N1CCC[C@]12CC=CCCCC1(CCCC=CCCCCCC[C@@](C)(C(=O)N[C@@H](Cc3cccc(F)c3)C(=O)N[C@@H](Cc3csc4ccccc34)C(=O)N[C@@H](CCC(N)=O)C(N)=O)NC(=O)[C@H](CCC(N)=O)NC(=O)[C@H](Cc3ccsc3)NC(=O)[C@H](C)NC(=O)[C@H](C)NC(=O)[C@H](CCC(=O)O)NC(=O)[C@H](CC(=O)O)NC1=O)NC(=O)[C@H](C)NC(=O)[C@H](CC(=O)O)NC2=O (stereo partly drawn) [I-429, Ac-PL3-Asp-Ala-B5-Asp-Glu-Ala-Ala-3Thi-Gln-S8-3FF-BztA-Gln-NH2]
 | 1.85 | 2150 | 46 (≈ 86.6 µg/mL) |  |  |  |  |  | CC(=O)N1CCC[C@]12CC=CCCCC1(CCCC=CCOC(=O)N(C)CCC[C@@](C)(C(=O)N[C@@H](Cc3cccc(F)c3)C(=O)N[C@@H](Cc3csc4ccccc34)C(=O)N[C@@H](CCC(N)=O)C(N)=O)NC(=O)[C@H](C(C)C)NC(=O)[C@H](Cc3ccccc3)NC(=O)[C@H](C)NC(=O)[C@H](C)NC(=O)[C@H](Cc3c[nH]cn3)NC(=O)[C@H](CC(=O)O)NC1=O)NC(=O)[C@H](C)NC(=O)[C@H](CC(=O)O)NC2=O (stereo partly drawn) [I-398, Ac-PL3-Asp-Ala-B5-Asp-His-Ala-Ala-Phe-Val-SeN-3FF-BztA-Gln-NH2]
49 (≈ 88.9 µg/mL) |  | 53 |  | 2.052 | 53 |  |  |  | CC(=O)N1CCC[C@]12CC=CCCCC1(CCCC=CCCCCCC[C@@](C)(C(=O)N[C@@H](Cc3ccccc3)C(=O)N[C@@H](Cc3csc4ccccc34)C(=O)N[C@@H](CCO)C(N)=O)NC(=O)[C@H](CCC(N)=O)NC(=O)[C@H](Cc3ccccc3)NC(=O)[C@H](C)NC(=O)[C@H](C)NC(=O)[C@H](CCC(=O)O)NC(=O)[C@H](CC(=O)O)NC1=O)NC(=O)[C@H](C)NC(=O)[C@H](CC(=O)O)NC2=O (stereo partly drawn) [I-492, Ac-PL3-Asp-Ala-B5-Asp-Glu-Ala-Ala-Phe-Gln-S8-Phe-BztA-Hse-NH2]
19 (≈ 35.4 µg/mL) |  | 3420 |  | 2.096 | 3420 |  |  |  | CC(=O)N1CCC[C@]12CC=CCCCC1(CCCC=CCCCCCC[C@@](C)(C(=O)N[C@@H](Cc3ccccc3)C(=O)N[C@@H](Cc3csc4ccccc34)C(=O)N[C@@H](CCC(N)=O)C(N)=O)NC(=O)[C@H](CCC(N)=O)NC(=O)[C@H](Cc3ccccc3)NC(=O)[C@H](C)NC(=O)[C@H](C)NC(=O)[C@H](CCC(=O)O)NC(=O)[C@H](Cc3nn[nH]n3)NC1=O)NC(=O)[C@H](C)NC(=O)[C@H](CC(=O)O)NC2=O (stereo partly drawn) [I-414, Ac-PL3-Asp-Ala-B5-tetz-Glu-Ala-Ala-Phe-Gln-S8-Phe-BztA-Gln-NH2]
 | 2.05 |  | 37 (≈ 67.2 µg/mL) |  |  | 5000 |  |  | CC(=O)N1CCC[C@]12CC=CCCCC1(CCCC=CCCCCCC[C@@](C)(C(=O)N[C@@H](Cc3ccccc3)C(=O)N[C@@H](Cc3c[nH]c4ccccc34)C(=O)N[C@@H](CCC(N)=O)C(N)=O)NC(=O)[C@H](C(C)C)NC(=O)[C@H](Cc3ccc(F)c(F)c3)NC(=O)[C@H](C)NC(=O)[C@H](C)NC(=O)[C@H](CC(=O)O)NC(=O)[C@H](CC(=O)O)NC1=O)NC(=O)[C@H](C)NC(=O)[C@H](CC(=O)O)NC2=O (stereo partly drawn) [I-267, Ac-PL3-Asp-Ala-B5-Asp-Asp-Ala-Ala-34FF-Val-S8-Phe-Trp-Gln-NH2]
48 (≈ 91.2 µg/mL) |  | 186 |  | 2.167 | 186 |  |  |  | CC[C@H](C)[C@@H]1NC(=O)[C@H](CC(=O)O)NC(=O)[C@]2(CC=CCCCC3(CCCC=CCCCCCC[C@@](C)(C(=O)N[C@@H](Cc4ccccc4)C(=O)N[C@@H](Cc4csc5ccccc45)C(=O)N[C@@H](CCC(N)=O)C(N)=O)NC(=O)[C@H](CCC(N)=O)NC(=O)[C@H](Cc4ccccc4)NC(=O)[C@H](C)NC(=O)[C@H](CO)NC(=O)[C@H](CCC(=O)O)NC(=O)[C@H](CC(=O)O)NC3=O)NC1=O)CCCN2C(C)=O (stereo partly drawn) [I-651, Ac-PL3-Asp-Ile-B5-Asp-Glu-Ser-Ala-Phe-Gln-S8-Phe-BztA-Gln-NH2]
45 (≈ 89.2 µg/mL) |  |  |  | 1.761 |  |  | 199 | 374 | CC(=O)N1CCC[C@]12CC=CCCCC1(CCCC=CCCCOC(=O)N3CC[C@@](C(=O)N[C@@H](Cc4ccsc4)C(=O)N[C@@H](Cc4csc5ccccc45)C(=O)N[C@@H](CCC(N)=O)C(N)=O)(C3)NC(=O)[C@H]([C@@H](C)O)NC(=O)[C@H](Cc3ccccc3)NC(=O)[C@H](C)NC(=O)[C@H](C)NC(=O)[C@H](Cc3cccc(C(=O)O)c3)NC(=O)[C@H](CC(=O)O)NC1=O)NC(=O)[C@H](CC(C)(C)C)NC(=O)[C@H](CC(=O)O)NC2=O (stereo partly drawn) [I-981, Ac-PL3-Asp-Npg-B5-Asp-3COOHF-Ala-Ala-Phe-Thr-PyrS2-3Thi-BztA-Gln-NH2]
10 (≈ 19.7 µg/mL) | 2.39 |  |  |  |  |  |  | 176 | CC(=O)N1CCC[C@]12CC=CCCCC1(CCCC=CCCCOC(=O)N3CC[C@@](C(=O)N[C@@H](Cc4ccc5ccccc5c4)C(=O)N[C@@H](Cc4csc5ccccc45)C(=O)N[C@@H](Cc4c[nH]cn4)C(N)=O)(C3)NC(=O)[C@H](CC(N)=O)NC(=O)[C@H](Cc3ccccc3)NC(=O)[C@H](C)NC(=O)[C@H](C)NC(=O)[C@H](CC(=O)O)NC(=O)[C@H](CC(=O)O)NC1=O)NC(=O)[C@H](CC(C)(C)C)NC(=O)[C@H](CC(=O)O)NC2=O (stereo partly drawn) [I-795, Ac-PL3-Asp-Npg-B5-Asp-Asp-Ala-Ala-Phe-Asn-PyrS2-2NapA-BztA-His-NH2]
47 (≈ 94.7 µg/mL) |  |  |  | 2.271 |  |  | 1050 | 1050 | CC(=O)N1CCC[C@]12CC=CCCCC1(CCCC=CCCCOC(=O)N3CC[C@@](C(=O)N[C@@H](Cc4ccsc4)C(=O)N[C@@H](Cc4csc5ccccc45)C(=O)N[C@@H](CC(C)C)C(N)=O)(C3)NC(=O)[C@H](CC(N)=O)NC(=O)[C@H](Cc3ccccc3)NC(=O)[C@H](C)NC(=O)[C@H](C)NC(=O)[C@H](CN(CC(=O)O)CC(F)(F)F)NC(=O)[C@H](CC(=O)O)NC1=O)NC(=O)[C@H](CC(C)(C)C)NC(=O)[C@H](CC(=O)O)NC2=O (stereo partly drawn) [I-947, Ac-PL3-Asp-Npg-B5-Asp-TfeGA-Ala-Ala-Phe-Asn-PyrS2-3Thi-BztA-Leu-NH2]
46 (≈ 87.7 µg/mL) |  |  |  | 1.952 |  |  | 1710 | 2240 | CCN(CC(=O)O)C[C@@H]1NC(=O)[C@H](CC(=O)O)NC(=O)C2(CCCC=CCCCOC(=O)N3CC[C@@](C(=O)N[C@@H](Cc4ccsc4)C(=O)N[C@@H](Cc4csc5ccccc45)C(=O)N[C@@H](CO)C(N)=O)(C3)NC(=O)[C@H](CO)NC(=O)[C@H](Cc3ccccc3)NC(=O)[C@H](C)NC(=O)[C@H](C)NC1=O)CCCC=CC[C@]1(CCCN1C(C)=O)C(=O)N[C@@H](CC(=O)O)C(=O)N[C@@H](CC(C)(C)C)C(=O)N2 (stereo partly drawn) [I-975, Ac-PL3-Asp-Npg-B5-Asp-EtGA-Ala-Ala-Phe-Ser-PyrS2-3Thi-BztA-Ser-NH2]
49 (≈ 90.9 µg/mL) |  | 42 |  | 2.169 | 42 |  |  |  | CC[C@@H]1NC(=O)[C@H](CC(=O)O)NC(=O)[C@]2(CC=CCCCC3(CCCC=CCCCCCC[C@@](C)(C(=O)N[C@@H](Cc4ccccc4)C(=O)N[C@@H](Cc4csc5ccccc45)C(=O)N[C@@H](CCC(N)=O)C(N)=O)NC(=O)[C@H](CCC(N)=O)NC(=O)[C@H](Cc4ccccc4)NC(=O)[C@H](C)NC(=O)[C@H](C)NC(=O)[C@H](CCC(=O)O)NC(=O)[C@H](CC(=O)O)NC3=O)NC1=O)CCCN2C(C)=O (stereo partly drawn) [I-569, Ac-PL3-Asp-Abu-B5-Asp-Glu-Ala-Ala-Phe-Gln-S8-Phe-BztA-Gln-NH2]
50 (≈ 93.8 µg/mL) |  | 45 |  | 2.313 | 45 |  |  |  | CC[C@H](C)[C@@H]1NC(=O)[C@H](CC(=O)O)NC(=O)[C@]2(CC=CCCCC3(CCCC=CCCCCCC[C@@](C)(C(=O)N[C@@H](Cc4ccsc4)C(=O)N[C@@H](Cc4csc5ccccc45)C(=O)N[C@@H](CCC(N)=O)C(N)=O)NC(=O)[C@H](CC(N)=O)NC(=O)[C@H](Cc4ccccc4)NC(=O)[C@H](C)NC(=O)[C@H](C)NC(=O)[C@H](CCC(=O)O)NC(=O)[C@H](CC(=O)O)NC3=O)NC1=O)CCCN2C(C)=O (stereo partly drawn) [I-520, Ac-PL3-Asp-Ile-B5-Asp-Glu-Ala-Ala-Phe-Asn-S8-3Thi-BztA-Gln-NH2]
 | 2.45 |  | 14 (≈ 26.3 µg/mL) |  |  |  |  | 43 | CC(=O)N1CCC[C@]12CC=CCCCC1(CCCC=CCCCOC(=O)N3CC[C@@](C(=O)N[C@@H](Cc4ccccc4F)C(=O)N[C@@H](Cc4csc5ccccc45)C(=O)N[C@@H](CO)C(N)=O)(C3)NC(=O)[C@H]([C@@H](C)O)NC(=O)[C@H](Cc3ccccc3)NC(=O)[C@H](C)NC(=O)[C@H](C)NC(=O)[C@H](CC(N)=O)NC(=O)[C@H](CC(=O)O)NC1=O)NC(=O)[C@H](CC(C)(C)C)NC(=O)[C@H](CC(=O)O)NC2=O (stereo partly drawn) [I-1024, Ac-PL3-Asp-Npg-B5-Asp-Asn-Ala-Ala-Phe-Thr-PyrS2-2FF-BztA-Ser-NH2]
